In ChEMBL document CHEMBL5154747, “Discovery of new carbonic anhydrase IX inhibitors as anticancer agents by toning the hydrophobic and hydrophilic rims of the active site to encounter the dual-tail approach” (Eur J Med Chem, 2022):

Key:
Carbonic anhydrase 9 = Carbonic anhydrase 9 (Homo sapiens, UniProt Q16790); assay: Inhibition of recombinant human CA 9 preincubated for 15 mins by phenol red dye based stopped flow CO2 hydration assay
CCRF-CEM = assay: Anticancer activity against human CCRF-CEM cells assessed as cell growth inhibition at 10 uM incubated for 48 hrs by SRB assay relative to control; assay type: functional; conditions: read-out: GI
SR = assay: Anticancer activity against human SR cells assessed as cell growth inhibition at 10 uM incubated for 48 hrs by SRB assay relative to control; assay type: functional; conditions: read-out: GI
NCI-H226 = assay: Anticancer activity against human NCI-H226 cells assessed as cell growth inhibition at 10 uM incubated for 48 hrs by SRB assay relative to control; assay type: functional; conditions: read-out: GI
NCI-H460 = assay: Anticancer activity against human NCI-H460 cells assessed as cell growth inhibition at 10 uM incubated for 48 hrs by SRB assay relative to control; assay type: functional; conditions: read-out: GI
HCC 2998 [1] = assay: Anticancer activity against human HCC 2998 cells assessed as cell growth inhibition at 10 uM incubated for 48 hrs by SRB assay relative to control; assay type: functional; conditions: read-out: GI
HCT-116 = assay: Anticancer activity against human HCT-116 cells assessed as cell growth inhibition at 10 uM incubated for 48 hrs by SRB assay relative to control; assay type: functional; conditions: read-out: GI
HCT-15 [2] = assay: Anticancer activity against human HCT-15 cells assessed as cell growth inhibition at 10 uM incubated for 48 hrs by SRB assay relative to control; assay type: functional; conditions: read-out: GI
HT-29 [3] = assay: Anticancer activity against human HT-29 cells assessed as cell growth inhibition at 10 uM incubated for 48 hrs by SRB assay relative to control; assay type: functional; conditions: read-out: GI
SF-539 = assay: Anticancer activity against human SF-539 cells assessed as cell growth inhibition at 10 uM incubated for 48 hrs by SRB assay relative to control; assay type: functional; conditions: read-out: GI
U-251 = assay: Anticancer activity against human U-251 cells assessed as cell growth inhibition at 10 uM incubated for 48 hrs by SRB assay relative to control; assay type: functional; conditions: read-out: GI
LOX IMVI = assay: Anticancer activity against human LOX IMVI cells assessed as cell growth inhibition at 10 uM incubated for 48 hrs by SRB assay relative to control; assay type: functional; conditions: read-out: GI
UACC-62 = assay: Anticancer activity against human UACC-62 cells assessed as cell growth inhibition at 10 uM incubated for 48 hrs by SRB assay relative to control; assay type: functional; conditions: read-out: GI
OVCAR-5 = assay: Anticancer activity against human OVCAR-5 cells assessed as cell growth inhibition at 10 uM incubated for 48 hrs by SRB assay relative to control; assay type: functional; conditions: read-out: GI
ACHN [4] = assay: Anticancer activity against human ACHN cells assessed as cell growth inhibition at 10 uM incubated for 48 hrs by SRB assay relative to control; assay type: functional; conditions: read-out: GI
SN12C = assay: Anticancer activity against human SN12C cells assessed as cell growth inhibition at 10 uM incubated for 48 hrs by SRB assay relative to control; assay type: functional; conditions: read-out: GI
TK-10 [5] = assay: Anticancer activity against human TK-10 cells assessed as cell growth inhibition at 10 uM incubated for 48 hrs by SRB assay relative to control; assay type: functional; conditions: read-out: GI
UO-31 [6] = assay: Anticancer activity against human UO-31 cells assessed as cell growth inhibition at 10 uM incubated for 48 hrs by SRB assay relative to control; assay type: functional; conditions: read-out: GI
PC-3 [7] = assay: Anticancer activity against human PC-3 cells assessed as cell growth inhibition at 10 uM incubated for 48 hrs by SRB assay relative to control; assay type: functional; conditions: read-out: GI
DU-145 = assay: Anticancer activity against human DU-145 cells assessed as cell growth inhibition at 10 uM incubated for 48 hrs by SRB assay relative to control; assay type: functional; conditions: read-out: GI
MCF7 [8] = assay: Anticancer activity against human MCF7 cells assessed as cell growth inhibition at 10 uM incubated for 48 hrs by SRB assay relative to control; assay type: functional; conditions: read-out: GI
MOLT-4 = assay: Anticancer activity against human MOLT-4 cells assessed as cell growth inhibition incubated for 48 hrs by SRB assay; assay type: functional
A549 = assay: Anticancer activity against human A549 cells assessed as cell growth inhibition incubated for 48 hrs by SRB assay; assay type: functional
HCC 2998 [9] = assay: Anticancer activity against human HCC 2998 cells assessed as cell growth inhibition incubated for 48 hrs by SRB assay; assay type: functional
HCT-15 [10] = assay: Anticancer activity against human HCT-15 cells assessed as cell growth inhibition incubated for 48 hrs by SRB assay; assay type: functional
HT-29 [11] = assay: Anticancer activity against human HT-29 cells assessed as cell growth inhibition incubated for 48 hrs by SRB assay; assay type: functional
SF-295 = assay: Anticancer activity against human SF-295 cells assessed as cell growth inhibition incubated for 48 hrs by SRB assay; assay type: functional; conditions: read-out: LC50 (the source's name)
SNB-75 = assay: Anticancer activity against human SNB-75 cells assessed as cell growth inhibition incubated for 48 hrs by SRB assay; assay type: functional
SK-MEL-28 = assay: Anticancer activity against human SK-MEL-28 cells assessed as cell growth inhibition incubated for 48 hrs by SRB assay; assay type: functional
SK-MEL-5 = assay: Anticancer activity against human SK-MEL-5 cells assessed as cell growth inhibition incubated for 48 hrs by SRB assay; assay type: functional
IGROV-1 = assay: Anticancer activity against human IGROV-1 cells assessed as cell growth inhibition incubated for 48 hrs by SRB assay; assay type: functional
NCI/ADR-RES = assay: Anticancer activity against human NCI/ADR-RES cells assessed as cell growth inhibition incubated for 48 hrs by SRB assay; assay type: functional
ACHN [12] = assay: Anticancer activity against human ACHN cells assessed as cell growth inhibition incubated for 48 hrs by SRB assay; assay type: functional
TK-10 [13] = assay: Anticancer activity against human TK-10 cells assessed as cell growth inhibition incubated for 48 hrs by SRB assay; assay type: functional
UO-31 [14] = assay: Anticancer activity against human UO-31 cells assessed as cell growth inhibition incubated for 48 hrs by SRB assay; assay type: functional
PC-3 [15] = assay: Anticancer activity against human PC-3 cells assessed as cell growth inhibition incubated for 48 hrs by SRB assay; assay type: functional
MCF7 [16] = assay: Anticancer activity against human MCF7 cells assessed as cell growth inhibition incubated for 48 hrs by SRB assay; assay type: functional
BT-549 = assay: Anticancer activity against human BT-549 cells assessed as cell growth inhibition incubated for 48 hrs by SRB assay; assay type: functional
T47D = assay: Anticancer activity against human T47D cells assessed as cell growth inhibition incubated for 48 hrs by SRB assay; assay type: functional
MDA-MB-468 = assay: Anticancer activity against human MDA-MB-468 cells assessed as cell growth inhibition incubated for 48 hrs by SRB assay; assay type: functional
[17] = read-out: LC50 (the source's name)

Cc1nn(-c2ccccc2)cc1/C=N/Nc1nc(Nc2ccccc2)nc(Nc2ccc(S(N)(=O)=O)cc2)n1
Ki (Carbonic anhydrase 9): 207 nM | inhibition of growth at 10 µM (CCRF-CEM): 91% | inhibition of growth at 10 µM (SR): 66% | inhibition of growth at 10 µM (NCI-H226): 159% | inhibition of growth at 10 µM (NCI-H460): 135% | inhibition of growth at 10 µM (HCC 2998 [1]): 117% | inhibition of growth at 10 µM (HCT-116): 59% | inhibition of growth at 10 µM (HCT-15 [2]): 92% | inhibition of growth at 10 µM (HT-29 [3]): 94% | inhibition of growth at 10 µM (SF-539): 28% | inhibition of growth at 10 µM (U-251): 122% | inhibition of growth at 10 µM (LOX IMVI): 125% | inhibition of growth at 10 µM (UACC-62): 127% | inhibition of growth at 10 µM (OVCAR-5): 113% | inhibition of growth at 10 µM (ACHN [4]): 100% | inhibition of growth at 10 µM (SN12C): 100% | inhibition of growth at 10 µM (TK-10 [5]): 55% | inhibition of growth at 10 µM (UO-31 [6]): 104% | inhibition of growth at 10 µM (PC-3 [7]): 98% | inhibition of growth at 10 µM (DU-145): 90% | inhibition of growth at 10 µM (MCF7 [8]): 169% | GI50 (MOLT-4): 2290 nM | CC50 (MOLT-4; [17]): > 100000 nM | GI50 (A549): 1850 nM | GI50 (HCC 2998 [9]): 1880 nM | CC50 (HCC 2998 [9]; [17]): 7010 nM | GI50 (HCT-15 [10]): 2670 nM | CC50 (HCT-15 [10]; [17]): > 100000 nM | GI50 (HT-29 [11]): 2880 nM | CC50 (HT-29 [11]; [17]): > 100000 nM | CC50 (SF-295): > 100000 nM | GI50 (SNB-75): 2690 nM | LC50 (concentration killing 50% of cells) (SNB-75): > 100000 nM | GI50 (SK-MEL-28): 1800 nM | CC50 (SK-MEL-28; [17]): 6640 nM | GI50 (SK-MEL-5): 1480 nM | LC50 (SK-MEL-5): 5300 nM | GI50 (IGROV-1): 2590 nM | CC50 (IGROV-1; [17]): > 100000 nM | GI50 (NCI/ADR-RES): > 100000 nM | CC50 (NCI/ADR-RES; [17]): > 100000 nM | GI50 (ACHN [12]): 1900 nM | CC50 (ACHN [12]; [17]): 6720 nM | GI50 (TK-10 [13]): 1480 nM | CC50 (TK-10 [13]; [17]): 8250 nM | GI50 (UO-31 [14]): 1720 nM | CC50 (UO-31 [14]; [17]): 7270 nM | GI50 (PC-3 [15]): 2220 nM | CC50 (PC-3 [15]; [17]): > 100000 nM | GI50 (MCF7 [16]): 1550 nM | LC50 (MCF7 [16]): 7590 nM | GI50 (BT-549): 1840 nM | CC50 (BT-549; [17]): > 100000 nM | GI50 (T47D): 2140 nM | LC50 (T47D): > 100000 nM | GI50 (MDA-MB-468): 1520 nM | CC50 (MDA-MB-468; [17]): 7030 nM

NS(=O)(=O)c1ccc(Nc2nc(N/N=C/c3ccccc3)nc(Nc3ccccc3)n2)cc1
Ki (Carbonic anhydrase 9): 30.3 nM | inhibition of growth at 10 µM (CCRF-CEM): 52% | inhibition of growth at 10 µM (SR): 25% | inhibition of growth at 10 µM (NCI-H226): 22% | inhibition of growth at 10 µM (NCI-H460): 31% | inhibition of growth at 10 µM (HCC 2998 [1]): 21% | inhibition of growth at 10 µM (HCT-116): 27% | inhibition of growth at 10 µM (HCT-15 [2]): 13% | inhibition of growth at 10 µM (HT-29 [3]): 37% | inhibition of growth at 10 µM (SF-539): 23% | inhibition of growth at 10 µM (U-251): 14% | inhibition of growth at 10 µM (LOX IMVI): 35% | inhibition of growth at 10 µM (UACC-62): 31% | inhibition of growth at 10 µM (OVCAR-5): < 10% | inhibition of growth at 10 µM (ACHN [4]): 17% | inhibition of growth at 10 µM (SN12C): 20% | inhibition of growth at 10 µM (TK-10 [5]): < 10% | inhibition of growth at 10 µM (UO-31 [6]): 34% | inhibition of growth at 10 µM (PC-3 [7]): 31% | inhibition of growth at 10 µM (DU-145): 38% | inhibition of growth at 10 µM (MCF7 [8]): 46%

CN(C)c1ccc(/C=N/Nc2nc(Nc3ccccc3)nc(Nc3ccc(S(N)(=O)=O)cc3)n2)cc1
Ki (Carbonic anhydrase 9): 13.3 nM | inhibition of growth at 10 µM (CCRF-CEM): 53% | inhibition of growth at 10 µM (SR): 29% | inhibition of growth at 10 µM (NCI-H226): 21% | inhibition of growth at 10 µM (NCI-H460): < 10% | inhibition of growth at 10 µM (HCC 2998 [1]): < 10% | inhibition of growth at 10 µM (HCT-116): 45% | inhibition of growth at 10 µM (HCT-15 [2]): 20% | inhibition of growth at 10 µM (HT-29 [3]): 43% | inhibition of growth at 10 µM (SF-539): 59% | inhibition of growth at 10 µM (U-251): 32% | inhibition of growth at 10 µM (LOX IMVI): 31% | inhibition of growth at 10 µM (UACC-62): < 10% | inhibition of growth at 10 µM (OVCAR-5): < 10% | inhibition of growth at 10 µM (ACHN [4]): 15% | inhibition of growth at 10 µM (SN12C): 22% | inhibition of growth at 10 µM (TK-10 [5]): < 10% | inhibition of growth at 10 µM (UO-31 [6]): 15% | inhibition of growth at 10 µM (PC-3 [7]): 38% | inhibition of growth at 10 µM (DU-145): 26% | inhibition of growth at 10 µM (MCF7 [8]): 40%
